# From patent US20240269287A1, “MICROBUBBLE-ASSISTED ULTRASOUND-GUIDED THERAPY” (THE BOARD OF REGENTS OF THE UNIVERSITY OF TEXAS SYSTEM, priority 2021, published 2024)
# Columns and labels:
# STING pathway in BMDMs = experiment: STING signaling after treatment (qRT-PCR, ELISA, western blot, immunostaining); type: cell-based, mouse
# Description: Mouse BMDMs and human THP-1 cells were cultured as described above.
# [1] = system: EO771 orthotopic breast tumors; experiment: Tumor growth and survival; type: in vivo, mouse; conditions: wild type mice, three intratumoral treatments every other day, 100 μg cGAMP
# Description: Orthotopic mammary fat pad tumors were established as in Example 9. […] The mice were injected intratumorally with 20 μL of solution infused at 1 μL/second using a syringe pump. […] The mice were treated every other day for a total of three treatments (days 13, 15, and 17). US, where part of the treatment group, was applied by using acoustic coupling gel and a 1-MHz plane wave transducer operating at 4 W/cm^2 for 60 seconds and a 50% duty cycle given to opposite sides of the tumor for a total treatment time of 120 seconds. At 18 days post tumor inoculation treated mice were sacrificed.
# Tumor sizes were measured every two days using digital calipers, and tumor volume was calculated according to an ellipsoid formula as 0.5×length×width^2. Mice were sacrificed if any tumor ulceration was observed or if tumors reached 2000 mm^3 in volume. The final tumor volume comparison between the MUSIC and control groups was done when the first mice from a control group was sacrificed. […] Statistical analysis was done using an unpaired t-test for tumor sizes and Log-rank test for survival curves.
# BMDMs = type: cell-based, mouse
# Description: Mouse bone marrow-derived macrophages (BMDMs) were isolated from the hind leg femur bone marrow of C57BL/6J mice and were cultured or activated with macrophage colony-stimulating factor (M-CSF, 50 ng ml-1) according to standardized procedures. The purity of the induced cells was assessed by flow cytometry for CD45+CD11b+ cells.
# One day before treatment, cells were plated at 400,000 cells/well in a 12 well plate. […] […] Plates were flipped upside down and left to incubate for 10 min at 37° C. Cells were diluted to 2.5 mL with PFB-saturated RPMI, placed on top of a water bath set to 37° C., then sonoporated at 1 MHz, with 1 W/cm^2 power density, 20% duty cycle (DC) for 60 seconds (SONITRON® GTS, 15 mm diameter). Fluorescence microscopy images were taken at different time points (0, 3, 6, 12, 24, and 48 h).
Compound,STING or IRF-3 phosphorylation (western blot) (STING pathway in BMDMs),mice with complete tumor remission / complete response [1],uptake of diGMP (fluorescence microscopy) (BMDMs)
"Nc1nc2c(ncn2[C@@H]2O[C@@H]3COP(=O)(O)O[C@H]4[C@@H](O)[C@H](n5cnc6c(N)ncnc65)O[C@@H]4COP(=O)(O)O[C@@H]2[C@@H]3O)c(=O)[nH]1 [cGAMP, cyclic guanosine monophosphate-adenosine monophosphate]",no STING or IRF-3 phosphorylation,2 out of 10,–
2′-O-(6-[DY547]-aminohexylcarbamoyl)-cyclic diguanosine monophosphate [diGMP only],–,–,weak uptake
